Assay [1] relates to tumor necrosis factor-α (TNF-α). Put plainly: Sandwich ELISA quantification of TNF-α in supernatants of treated fibroblast-like synoviocytes. Particulars: fibroblast-like synoviocytes from patients with degenerative arthritis, 24 hours treatment, supernatant. It counts as cell-based, human. On the procedure: (§1) The fibroblast-like synoviocytes (FLS) from five patients with degenerative arthritis were collected and cultured. First, the joint synovium of the patients were cut into small pieces, suspended in a DMEM (Dulbecco modified eagle's medium) culture medium, and incubated under an environment of 37° C. and 5% CO2 for 3 days. The culture medium contains 1.5 g/L sodium bicarbonate (S6297, Sigma-Aldrich, St Louis, Mo., USA), 1% penicillin-streptomycin-neomycin (P408, Sigma-Aldrich), and 10% fetal bovine serum (04-001-1A, Biological Industries, Grand Island, N.Y., USA).
(§2) Non-attached cells were removed by a phosphate buffered saline solution (PBS), the culture medium was refreshed, and the attached cells were cultured for 2 weeks. After the above steps were repeated 3 to 6 times, the remaining cells were fibroblast-like synoviocytes. The obtained cells were then used for the following test.
(§3) The fibroblast-like synoviocytes obtained form Experiment A were cultured in a serum-free culture medium for 24 hours. Then, the fibroblast-like synoviocytes were separately cultured in the following four culture medium for 24 hours: (1) a DMEM culture medium comprising only 10% fetal bovine serum (as a control group); (2) a DMEM culture medium comprising 10% fetal bovine serum and hyaluronic acid (having an average molecular weight of 600 KDa to 800 KDa); (3) a DMEM culture medium comprising 10% fetal bovine serum and vitamin C, vitamin D, or vitamin E; and (4) a DMEM culture medium comprising 10% fetal bovine serum, hyaluronic acid (having an average molecular weight of 600 KDa to 800 KDa), and vitamin C, vitamin D or vitamin E. The concentrations of hyaluronic acid and vitamin in the above four culture mediums were the same as the above Preparation Example.
(§4) Then, the cells of the aforesaid four groups were collected and centrifuged, and the supernatants were collected for the following analysis.
(§5) In this experiment, the concentrations of two cytokines related to degenerative arthritis in the collected supernatants from Experiment B were determined by using a sandwich binding protein assay kit (or sandwich ELISA kits, purchased from the eBioscience company) based on the standard curves according to the manufacturer's manual to analyze the expression level of these cytokines and determine the inflammation level of the cells. […] Each sample was analyzed twice, and an enzyme-linked immunosorbent assay (ELISA) reader (Sunrise Remote, TECAN) was used to carry out the measurement.
On the technique in general: In an ELISA, binding on a coated surface is turned into a signal by an enzyme label.

In the next assay the test system is Interleukin-1β (IL-1β). Put plainly: Sandwich ELISA quantification of IL-1β in supernatants of treated fibroblast-like synoviocytes. It counts as cell-based, human. As to conditions: fibroblast-like synoviocytes from patients with degenerative arthritis, 24 hours treatment, supernatant. On the procedure: as §1, §2, §3, §4, §5
[2] abbreviates: Table 3 (vitamin E experiment), control 98.09.
The mark [3] stands for this setting: Table 3 (vitamin E experiment), control 97.37.
Setting [4] is: Table 2 (vitamin D experiment), control 106.78.
[5] abbreviates: Table 2 (vitamin D experiment), control 97.47.
[6] abbreviates: Table 1 (vitamin C experiment), control 95.57.
Setting [7] is: Table 1 (vitamin C experiment), control 91.98.

Consider vitamin E, for which the TNF-α average concentration in assay [1] (setting [2]) was 77.03 pg/mL. In the assay with Interleukin-1β (IL-1β) (setting [3]), this compound came in with an IL-1β average concentration of 75.57 pg/mL.
For the compound vitamin D, the TNF-α average concentration in assay [1] (setting [4]) was 79.52 pg/mL. The compound also displayed an IL-1β average concentration in the assay with Interleukin-1β (IL-1β) (setting [5]) of 74.78 pg/mL.
Regarding hyaluronic acid, the figures for the TNF-α average concentration in assay [1] (setting [6]), in assay [1] (setting [4]) and in assay [1] (setting [2]) were 75.64 pg/mL, 82.52 pg/mL and 79.28 pg/mL, respectively. In addition, the IL-1β average concentration in the assay with Interleukin-1β (IL-1β) (setting [7]) was determined as 78.79 pg/mL; in the assay on Interleukin-1β (IL-1β) (setting [5]), 76.03 pg/mL; in the assay with Interleukin-1β (IL-1β) (setting [3]), 78.33 pg/mL.
Take `O=C1O[C@H]([C@@H](O)CO)C(O)=C1O` [vitamin C]: the TNF-α average concentration in assay [1] (setting [6]) turned out to be 75.56 pg/mL. The same compound had an IL-1β average concentration with Interleukin-1β (IL-1β) (setting [7]) of 77.00 pg/mL.

(Values after patent publication US20150094279A1, “PHARMACEUTICAL COMPOSITION AND METHOD FOR INHIBITING INFLAMMATION” (CHINA MEDICAL UNIVERSITY, priority 2011, published 2015).)
